Assay [1] in a line: Displacement of [3H]YM-9151-2 from D2 like receptor in rat striatal membrane. Format: cell membranes, Striatum. (In a radioligand displacement assay an active substance lowers the binding of a labelled ligand.)
Assay [2] deals with 5-hydroxytryptamine receptor 2A (Rattus norvegicus, UniProt P14842). The assay can be described thus: Displacement of [3H]ketanserin from 5HT2A receptor in rat cortex membrane. Format: cell membranes.
Chain of 5-hydroxytryptamine receptor 2A (P14842 whole entry): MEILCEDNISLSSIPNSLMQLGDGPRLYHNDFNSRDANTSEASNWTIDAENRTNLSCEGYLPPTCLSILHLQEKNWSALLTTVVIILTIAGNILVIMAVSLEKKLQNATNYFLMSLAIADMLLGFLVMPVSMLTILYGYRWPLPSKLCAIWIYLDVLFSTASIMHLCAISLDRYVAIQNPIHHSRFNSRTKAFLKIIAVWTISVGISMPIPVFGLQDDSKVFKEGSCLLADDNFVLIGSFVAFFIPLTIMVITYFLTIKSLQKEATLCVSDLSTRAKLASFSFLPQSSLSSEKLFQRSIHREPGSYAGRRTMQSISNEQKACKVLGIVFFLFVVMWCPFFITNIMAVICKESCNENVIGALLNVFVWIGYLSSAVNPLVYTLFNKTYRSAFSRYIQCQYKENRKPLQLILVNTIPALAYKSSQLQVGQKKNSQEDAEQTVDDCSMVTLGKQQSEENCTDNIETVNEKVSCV

What is called Ki is a measure of affinity in units of concentration, obtained from inhibition or displacement. Read a low Ki as tighter binding. `Oc1ccc(N2CCN(Cc3cn(-c4ccc(Cl)cc4)nn3)CC2)cc1`: the Ki in assay [1] worked out at 1700 nM.

For `Clc1ccc(-n2cc(CN3CCN(c4ccccc4)CC3)nn2)cc1`, the Ki in assay [1] worked out at 950 nM; in assay [2], 11000 nM.

The record behind these values is ChEMBL document CHEMBL1157922, “Design of new dopamine D2 receptor ligands: biosynthesis and pharmacological evaluation of the hydroxylated metabolite of LASSBio-581” (Bioorg Med Chem Lett, 2010).
